Source: patent publication US20080182830A1, “Agent for Treatment and Prevention of Endometriosis and Uterine Adenomyosis” (priority 2005, published 2008)

How the values were obtained:
uterine adenomyosis [1] = experiment: Therapy of uterine adenomyosis (1), single patient; assay type: in vivo, human
From the text: A patient having uterine adenomyosis was subjected to the treatment using the therapeutic agent according to the present invention. The patient had been subjected to injection of Leuplin, which was a therapeutic drug for endometriosis at one time per a month continuously for six months. However, the disease was not cured. Then, the uterus was enlarged to have a size corresponding to the third month of pregnancy, and menstrual pain was severe, and a menstrual bleeding was abundant. Moreover, CA125 in the blood indicated 441 units (the normal units are 35 units or less) and CA602 indicated 1025 units (the normal value is 63 units or less). The indicated values were abnormally high.
The menstrual pain and the hypermenorrhea disappeared. Moreover, CA125 in the blood was reduced to be 38 units and CA602 was reduced to 53 units after 60 days from the initiation of the administration. Accordingly, it can be said that the uterine adenomyosis was fully cured.

uterine adenomyosis [2] = experiment: Therapy of uterine adenomyosis (2), patient series with intrauterine devices; assay type: in vivo, human
Procedure: An intrauterine device (IUD) containing 600 μg to 900 μg of 3-ethylpyridine was inserted for 6 months […] of each of patients (12 cases) having uterine adenomyosis recurring after the nasal administration or injection of GnRH analogs.

vaginal endometriosis = experiment: Therapy of vaginal endometriosis, vaginal ring; assay type: in vivo, human
Procedure: A patient having endometriosis recurred after operation of the left ovary and Cul-de-Sac endometriosis was subjected to the treatment using the therapeutic agent according to the present invention. In the patient with an induration about 7 cm×about 5 cm in a deep right posterior fornix of the vagina. […] Moreover, menstrual pain, extramenstrual pain, severe lower abdominal pain, defecation pain, and coital pain were recognized. Accordingly, the above-described doughnut-type ring containing 9 mg 3-ethylpyridine was inserted into the posterior vaginal fornix. As a result, four weeks after the insertion, the coital pain, the defecation pain, the extramenstrual lower abdominal pain and low back pain disappeared, and the menstrual pain was reduced. The induration at the right posterior fornix of the vagina was scaled down to 4 cm×2 cm. Then, by continuous treatment, the induration at the right posterior fornix of the vagina was further scaled down to have 2 cm×1 cm. In addition to the above case, with respect to each of patients of other two cases having endometriosis, the pathological endometriosis was confirmed by biopsy and then, a vaginal ring containing 8 to 10 mg of 3-ethylpyridine was inserted into the vagina.

ovarian chocolate cyst = experiment: Therapy of ovarian chocolate cyst, injection into aspirated cyst; assay type: in vivo, human
From the text: A patient having ovarian chocolate cyst was subjected to the treatment using the therapeutic agent according to the present invention. In this patient, by transvaginal ultrasonic diagnosis, the cyst having a diameter of 6 cm was recognized in Cul-de-Sac. Moreover, CA125 in the blood indicated 1522 units and CA602 indicated 352 units (the normal value is 63 units or less). The indicated values were abnormally high. It was confirmed that the distance from the vaginal fornix to cyst was within 1 cm, and under observation with a transvaginal ultrasonography, the cyst content was punctured with a needle from the posterior vaginal fornix and was aspirated. Then, the 2 mL ethanol solution containing 2 mg of 3-ethyl pyridine was injected. As a result, the ovarian chocolate cyst disappeared four weeks after the injection. The uterus was scaled down to 2.5 cm. The menstrual pain disappeared. Moreover, CA125 in the blood was lowered to be 52 units and CA602 was lowered to be 61 units.
In addition to the above case, patients of other 12 cases having chocolate cysts were subjected to the following treatment. That is, under a transvaginal ultrasonic guide, the ovarian chocolate cyst having a distance within 10 mm from the posterior vaginal fornix was punctured and the cyst content was aspirated and then the 3 mL ethyl ether solution containing 3 mg of 3-ethylpyridine was injected into the cyst. As a result, in all 12 cases, the ovarian chocolate cyst was scaled down, and at the same time, the menstrual pain disappeared in eight cases, and, improved in three cases. […] In addition, existence of malignant cells in the aspirated cystic content was denied by cytodiagnosis.

deep endometriosis [3] = experiment: Therapy of deep endometriosis (1), single patient, vaginal rings; assay type: in vivo, human
From the text: A patient suffered from intensive menstrual pain by deep endometriosis was subjected to the treatment using the therapeutic agent according to the present invention.

deep endometriosis [4] = experiment: Therapy of deep endometriosis (2), 18 cases, vaginal ring; assay type: in vivo, human
Procedure: A vaginal ring containing 8 to 10 mg of 3-ethylpyridine was inserted into the vagina of each of deep endometriosis patients (18 cases) for 3 months. As a result, disappearance of pressure pain and induration in Cul-de-Sac was recognized in 9 cases, and improvement thereof was recognized in 7 cases, and nullity thereof was recognized in 2 cases. The menstrual pain disappeared in 4 cases, and improved in 13 cases and null in only one case. A coital pain disappeared in 10 cases and a defecation pain was improved in 7 cases.

[5] = system: chorioallantoic membrane of chicken; conditions: Lin J. et al. 2002; G. Melkonian et al. 2004; cited from earlier work
[6] = IUD-type device containing 825 μg
[7] = IUD-type device containing 825 μg inserted into the uterus
[8] = IUD containing 600 μg to 900 μg, 6 months, 12 cases
[9] = doughnut-type ring 9 mg, four weeks after insertion
[10] = other two cases, vaginal ring containing 8 to 10 mg
[11] = other 12 cases, 3 mL ethyl ether solution containing 3 mg
[12] = single patient, 2 mL ethanol solution containing 2 mg injected
[13] = vaginal ring 10 mg 3-ethylpyridine, after the danazol ring
[14] = vaginal ring 8 to 10 mg for 3 months
[15] = vaginal ring 1,000 mg danazol for 6 months

SMILES: CCc1cccnc1 [3-ethylpyridine]
- CA125 in the blood (uterine adenomyosis [1]; IUD-type device 825 μg, after 60 days from initiation, before 441 units, normal 35 units or less): 38 units
- CA602 in the blood (uterine adenomyosis [1]; IUD-type device 825 μg, after 60 days from initiation, before 1025 units, normal 63 units or less): 53 units
- recurrence after suspension of the treatment (uterine adenomyosis [1]; [6]): not recognized
- uterine adenomyosis outcome (uterine adenomyosis [1]; [6]): fully cured
- hypermenorrhea (uterine adenomyosis [1]; [7]): disappeared
- menstrual pain (uterine adenomyosis [1]; [7]): disappeared
- size of the uterine corpus (uterine adenomyosis [1]; IUD-type device containing 825 μg inserted into the uterus, six months after insertion, before: size of third month of pregnancy): scaled down to a normal size
- menstrual pain disappeared (uterine adenomyosis [2]; [8]): eight
- menstrual pain improved (uterine adenomyosis [2]; [8]): four
- therapeutic effect (uterine adenomyosis [2]; [8]): in all the cases, therapeutic effect was recognized
- hypermenorrhea disappeared (uterine adenomyosis [2]; IUD containing 600 μg to 900 μg, 6 months, 12 cases recurring after GnRH analogs): nine
- defecation pain (vaginal endometriosis; [9]): disappeared
- extramenstrual lower abdominal pain and low back pain (vaginal endometriosis; [9]): disappeared
- menstrual pain (vaginal endometriosis; [9]): reduced
- menstrual pain and defecation pain (vaginal endometriosis; [10]): disappeared in all the cases
- vaginal endometriosis (vaginal endometriosis; [10]): disappeared macroscopically and histologically in all two cases
- coital pain (vaginal endometriosis; patient, doughnut-type ring containing 9 mg in posterior vaginal fornix, four weeks after insertion): disappeared
- cyst enlarged again after the six months (ovarian chocolate cyst; [11]): three
- menstrual pain disappeared (ovarian chocolate cyst; [11]): eight
- menstrual pain improved (ovarian chocolate cyst; [11]): three
- ovarian chocolate cyst scaled down (ovarian chocolate cyst; other 12 cases, 3 mL ethyl ether solution containing 3 mg injected into the cyst): 12 cases
- CA602 in the blood (ovarian chocolate cyst; single patient, 2 mg injected, before 352 units, normal 63 units or less): 61 units
- CA125 in the blood (ovarian chocolate cyst; single patient, 2 mg injected, before 1522 units): 52 units
- menstrual pain (ovarian chocolate cyst; [12]): disappeared
- uterus scaled down to (ovarian chocolate cyst; [12]): 2.5 cm
- ovarian chocolate cyst (ovarian chocolate cyst; single patient, 2 mL ethanol solution containing 2 mg injected after aspiration, four weeks after injection, cyst diameter 6 cm before): disappeared
- ovary chocolate cyst outcome after repeated puncture and injection (ovarian chocolate cyst; the three cases enlarged again after six months): could be cured
- induration in Cul-de-Sac (deep endometriosis [3]; [13]): not scaled down
- menstrual pain (deep endometriosis [3]; [13]): further decreased
- CA125 in the blood (deep endometriosis [3]; vaginal ring containing 10 mg 3-ethylpyridine, after the danazol ring, in 3 months, from 620 units): 250 units
- coital pain disappeared (deep endometriosis [4]; [14]): 10 cases
- defecation pain improved (deep endometriosis [4]; [14]): 7 cases
- improvement of pressure pain and induration in Cul-de-Sac (deep endometriosis [4]; [14]): 7 cases
- menstrual pain disappeared (deep endometriosis [4]; [14]): 4 cases
- menstrual pain improved (deep endometriosis [4]; [14]): 13 cases
- menstrual pain null (deep endometriosis [4]; [14]): one
- nullity (no effect) on pressure pain and induration in Cul-de-Sac (deep endometriosis [4]; [14]): 2 cases
- disappearance of pressure pain and induration in Cul-de-Sac (deep endometriosis [4]; vaginal ring containing 8 to 10 mg for 3 months): 9 cases
- growth of chorioallantoic membrane of chicken [5]: inhibits the growth

SMILES: CCNC(=O)[C@@H]1CCCN1C(=O)[C@H](CCCNC(=N)N)NC(=O)[C@H](CC(C)C)NC(=O)[C@@H](CC(C)C)NC(=O)[C@H](Cc1ccc(O)cc1)NC(=O)[C@H](CO)NC(=O)[C@H](Cc1c[nH]c2ccccc12)NC(=O)[C@H](Cc1c[nH]cn1)NC(=O)[C@@H]1CCC(=O)N1 [Leuplin, reference compound]
- disease (uterine adenomyosis) outcome (uterine adenomyosis [1]; patient, injection one time per month continuously for six months): not cured

SMILES: C#C[C@]1(O)CC[C@H]2[C@@H]3CCC4=Cc5oncc5C[C@]4(C)[C@H]3CC[C@@]21C [danazol, reference compound]
- uterine adenomyosis outcome (uterine adenomyosis [2]; earlier treatment with IUDs containing danazol, the 55 cases): not cured
- CA125 in the blood (deep endometriosis [3]; patient, vaginal ring containing 1,000 mg danazol for 6 months, from 950 units): 620 units
- menstrual pain (deep endometriosis [3]; [15]): reduced but not fully cured
- painful induration in Cul-de-Sac (deep endometriosis [3]; [15]): not scaled down
